Measured values reported in PMC5218480 (PLoS ONE, 2017).

Tested on: MV-4-11 cells
Assay: Gene expression microarray analysis (Affymetrix PrimeView) and GSEA
Assay type: cell-based, human
Design: RFU PODN (11730768_x_at) / Fold change /veh PODN (11730768_x_at) / RFU LINC00158 (11744669_a_at) / Fold change /veh LINC00158 (11744669_a_at) / RFU DUSP10 (11751237_a_at) / Fold change /veh DUSP10 (11751237_a_at) / RFU ID3 (11757404_x_at) / Fold change /veh ID3 (11757404_x_at) / RFU PLEKHG5 (11737974_s_at) / Fold change /veh PLEKHG5 (11737974_s_at) / RFU LRRC4B (11730491_at) / Fold change /veh LRRC4B (11730491_at) / RFU GIMAP4 (11747438_a_at) / Fold change /veh GIMAP4 (11747438_a_at) / RFU KRT8 (11758183_x_at) / Fold change /veh KRT8 (11758183_x_at) / RFU CNN1 (11734310_a_at) / Fold change /veh CNN1 (11734310_a_at) / RFU VPS37D (11726825_at) / Fold change /veh VPS37D (11726825_at) / RFU C10orf10 (11716522_x_at) / Fold change /veh C10orf10 (11716522_x_at) / RFU KIR2DL2 /// KIR2DL4 /// KIR2DL5A /// KIR2DL5B /// KIR2DS1 /// KIR2DS2 /// KIR2DS3 /// KIR2DS4 /// KIR3DL3 /// KIR3DL3 /// KIR3DS1 (11738374_at) / Fold change /veh KIR2DL2 /// KIR2DL4 /// KIR2DL5A /// KIR2DL5B /// KIR2DS1 /// KIR2DS2 /// KIR2DS3 /// KIR2DS4 /// KIR3DL3 /// KIR3DL3 /// KIR3DS1 (11738374_at) / RFU C1QL1 (11718748_at) / Fold change /veh C1QL1 (11718748_at) / RFU TMPRSS4 (11747572_a_at) / Fold change /veh TMPRSS4 (11747572_a_at) / RFU HAMP (11756126_x_at) / Fold change /veh HAMP (11756126_x_at) / RFU RNFT2 (11725882_a_at) / Fold change /veh RNFT2 (11725882_a_at) / RFU NR4A2 (11747474_a_at) / Fold change /veh NR4A2 (11747474_a_at) / RFU ABCC12 (11746883_a_at) / Fold change /veh ABCC12 (11746883_a_at) / RFU TMEM136 (11760407_x_at) / Fold change /veh TMEM136 (11760407_x_at) / RFU CLDN22 /// WWC2 (11732394_at) / Fold change /veh CLDN22 /// WWC2 (11732394_at) / RFU HLA-DPB1 (11760878_x_at) / Fold change /veh HLA-DPB1 (11760878_x_at) / RFU SPINT1 (11716480_a_at) / Fold change /veh SPINT1 (11716480_a_at) / RFU GAP43 (11754022_s_at) / Fold change /veh GAP43 (11754022_s_at) / RFU A4GNT (11735810_at) / Fold change /veh A4GNT (11735810_at) / RFU PRB3 (11715151_x_at) / Fold change /veh PRB3 (11715151_x_at) / RFU TUBB4B (11761932_at) / Fold change /veh TUBB4B (11761932_at) / RFU CAPN14 (11732068_a_at) / Fold change /veh CAPN14 (11732068_a_at) / RFU TMCC2 (11721928_a_at) / Fold change /veh TMCC2 (11721928_a_at) / RFU IRGQ (11745062_a_at) / Fold change /veh IRGQ (11745062_a_at) / RFU FAM174B (11720279_a_at) / Fold change /veh FAM174B (11720279_a_at) / RFU TMPRSS4 (11748680_a_at) / Fold change /veh TMPRSS4 (11748680_a_at) / RFU FAM212B (11763350_a_at) / Fold change /veh FAM212B (11763350_a_at) / RFU PLEKHG5 (11743358_a_at) / Fold change /veh PLEKHG5 (11743358_a_at) / RFU ZSCAN30 (11745921_a_at) / Fold change /veh ZSCAN30 (11745921_a_at) / RFU CMKLR1 (11741424_a_at) / Fold change /veh CMKLR1 (11741424_a_at) / RFU LOC101060620 /// MAPK8IP1 (11723275_at) / Fold change /veh LOC101060620 /// MAPK8IP1 (11723275_at) / RFU SPTSSB (11747773_x_at) / Fold change /veh SPTSSB (11747773_x_at) / RFU PRSS12 (11739890_at) / Fold change /veh PRSS12 (11739890_at) / RFU BIN1 (11741810_x_at) / Fold change /veh BIN1 (11741810_x_at) / RFU WNT11 (11732464_a_at) / Fold change /veh WNT11 (11732464_a_at) / RFU C10orf10 (11716521_a_at) / Fold change /veh C10orf10 (11716521_a_at) / RFU C5orf56 (11738089_at) / Fold change /veh C5orf56 (11738089_at) / RFU CYB561 (11721691_x_at) / Fold change /veh CYB561 (11721691_x_at) / RFU ANKRD19P (11752326_a_at) / Fold change /veh ANKRD19P (11752326_a_at) / RFU OR2T12 /// OR2T33 /// OR2T8 (11738714_s_at) / Fold change /veh OR2T12 /// OR2T33 /// OR2T8 (11738714_s_at) / RFU VCAN (11748164_a_at) / Fold change /veh VCAN (11748164_a_at) / RFU JSRP1 (11732532_at) / Fold change /veh JSRP1 (11732532_at) / RFU KRTAP10-11 (11738290_x_at) / Fold change /veh KRTAP10-11 (11738290_x_at) / RFU MYO3A (11730013_a_at) / Fold change /veh MYO3A (11730013_a_at) / RFU EBF3 (11725865_a_at) / Fold change /veh EBF3 (11725865_a_at) / RFU CAMK2N1 (11719241_x_at) / Fold change /veh CAMK2N1 (11719241_x_at) / RFU C5orf56 (11738088_a_at) / Fold change /veh C5orf56 (11738088_a_at) / RFU OLFML3 (11715873_a_at) / Fold change /veh OLFML3 (11715873_a_at) / RFU LOC100653217 /// NTM (11731650_a_at) / Fold change /veh LOC100653217 /// NTM (11731650_a_at) / RFU MAPK11 (11762145_a_at) / Fold change /veh MAPK11 (11762145_a_at) / RFU FIZ1 (11724087_x_at) / Fold change /veh FIZ1 (11724087_x_at) / RFU OASL (11726364_x_at) / Fold change /veh OASL (11726364_x_at) / RFU SOX15 (11748057_x_at) / Fold change /veh SOX15 (11748057_x_at) / RFU CD79A (11719716_a_at) / Fold change /veh CD79A (11719716_a_at) / RFU HIST1H1D (11736915_at) / Fold change /veh HIST1H1D (11736915_at) / RFU CASKIN2 (11723855_a_at) / Fold change /veh CASKIN2 (11723855_a_at) / RFU LOC730098 (11760151_x_at) / Fold change /veh LOC730098 (11760151_x_at) / RFU OR4N2 (11742367_at) / Fold change /veh OR4N2 (11742367_at) / RFU PRRT2 (11749266_a_at) / Fold change /veh PRRT2 (11749266_a_at) / RFU SNX32 (11753110_a_at) / Fold change /veh SNX32 (11753110_a_at) / RFU CDHR5 (11726645_a_at) / Fold change /veh CDHR5 (11726645_a_at) / RFU RCAN1 (11760418_a_at) / Fold change /veh RCAN1 (11760418_a_at) / RFU FAM167A (11723789_a_at) / Fold change /veh FAM167A (11723789_a_at) / RFU FAM26E (11764081_at) / Fold change /veh FAM26E (11764081_at) / RFU ISYNA1 (11749810_s_at) / Fold change /veh ISYNA1 (11749810_s_at) / RFU ACY1 (11761880_at) / Fold change /veh ACY1 (11761880_at) / RFU 11764098_at / Fold change /veh 11764098_at / RFU SAMD14 (11745864_x_at) / Fold change /veh SAMD14 (11745864_x_at) / RFU NPB (11741838_a_at) / Fold change /veh NPB (11741838_a_at) / RFU TMPRSS6 (11731388_a_at) / Fold change /veh TMPRSS6 (11731388_a_at) / RFU KRTAP10-2 (11738614_at) / Fold change /veh KRTAP10-2 (11738614_at) / RFU ARHGAP8 /// PRR5-ARHGAP8 (11727945_x_at) / Fold change /veh ARHGAP8 /// PRR5-ARHGAP8 (11727945_x_at) / RFU KRTAP5-7 /// NADSYN1 (11734609_at) / Fold change /veh KRTAP5-7 /// NADSYN1 (11734609_at) / RFU RASL12 (11751679_a_at) / Fold change /veh RASL12 (11751679_a_at) / RFU CDKN2B (11736163_a_at) / Fold change /veh CDKN2B (11736163_a_at) / RFU PRF1 (11729649_at) / Fold change /veh PRF1 (11729649_at) / RFU, ZNF638 /// ZNF638-IT1 / Fold change vs veh, ZNF638 /// ZNF638-IT1 / RFU, PANK3 / Fold change vs veh, PANK3 / RFU, SH3YL1 / Fold change vs veh, SH3YL1 / RFU, ZEB2 / Fold change vs veh, ZEB2 / RFU, NRIP1 / Fold change vs veh, NRIP1 / RFU, PTTG1IP / Fold change vs veh, PTTG1IP / RFU, CAPN2 / Fold change vs veh, CAPN2 / RFU, MED14 / Fold change vs veh, MED14 / RFU, SNORA58 / Fold change vs veh, SNORA58 / RFU, C1orf63 / Fold change vs veh, C1orf63 / RFU, LRRFIP1 / Fold change vs veh, LRRFIP1 / RFU, NDUFAF7 / Fold change vs veh, NDUFAF7 / RFU, SLC12A2 / Fold change vs veh, SLC12A2 / RFU, IBTK / Fold change vs veh, IBTK / RFU, ESF1 / Fold change vs veh, ESF1 / Fold change vs veh, TMEM50B / RFU, TAOK1 / Fold change vs veh, TAOK1 / RFU, ACBD3 / Fold change vs veh, ACBD3 / RFU, TMA16 / Fold change vs veh, TMA16 / RFU, RWDD3 / Fold change vs veh, RWDD3 / RFU, BCAT1 / Fold change vs veh, BCAT1 / RFU, EDEM3 / Fold change vs veh, EDEM3 / RFU, TMEM33 / Fold change vs veh, TMEM33 / RFU, WDR75 / Fold change vs veh, WDR75 / RFU, AHCTF1 / Fold change vs veh, AHCTF1 / RFU, TFRC / Fold change vs veh, TFRC / RFU, ZDHHC17 / Fold change vs veh, ZDHHC17 / RFU, NOM1 / Fold change vs veh, NOM1 / RFU, ARL8B / Fold change vs veh, ARL8B / RFU, ZBTB11 / Fold change vs veh, ZBTB11 / RFU, TAMM41 / Fold change vs veh, TAMM41 / RFU, KIAA1704 /// LOC100996395 / Fold change vs veh, KIAA1704 /// LOC100996395 / RFU, ING1 / Fold change vs veh, ING1 / RFU, TRMT61B / Fold change vs veh, TRMT61B / RFU, FUBP3 / Fold change vs veh, FUBP3 / RFU, TP53 / Fold change vs veh, TP53 / RFU, TNKS2 / Fold change vs veh, TNKS2 / RFU, ZFP14 / Fold change vs veh, ZFP14 / RFU, ACTR2 / Fold change vs veh, ACTR2 / RFU, PPP3R1 / Fold change vs veh, PPP3R1 / RFU, PIK3R1 / Fold change vs veh, PIK3R1 / RFU, HNRNPA1 / Fold change vs veh, HNRNPA1 / RFU, RNF170 / Fold change vs veh, RNF170 / RFU, ZNF28 / Fold change vs veh, ZNF28 / RFU, RNGTT / Fold change vs veh, RNGTT / RFU, OGT / Fold change vs veh, OGT / RFU, BRD1 / Fold change vs veh, BRD1 / RFU, MARS / Fold change vs veh, MARS / RFU, ZNF655 / Fold change vs veh, ZNF655 / RFU, FAHD1 / Fold change vs veh, FAHD1 / RFU, BDP1 / Fold change vs veh, BDP1 / RFU, LRRCC1 / Fold change vs veh, LRRCC1 / RFU, ARID1A / Fold change vs veh, ARID1A / RFU, ZNF146 / Fold change vs veh, ZNF146 / RFU, ZNF330 / Fold change vs veh, ZNF330 / RFU, GPN3 / Fold change vs veh, GPN3 / RFU, C9orf123 / Fold change vs veh, C9orf123 / RFU, N4BP2L2 / Fold change vs veh, N4BP2L2 / RFU, ARFIP1 / Fold change vs veh, ARFIP1 / RFU, FAM179B / Fold change vs veh, FAM179B / RFU, BCL10 / Fold change vs veh, BCL10 / RFU, UHRF1BP1L / Fold change vs veh, UHRF1BP1L / RFU, BET1 / Fold change vs veh, BET1 / RFU, CNOT2 / Fold change vs veh, CNOT2 / RFU, ZNF268 / Fold change vs veh, ZNF268 / Fold change vs veh, ZNF507 / RFU, DGCR2 / Fold change vs veh, DGCR2 / RFU, WDSUB1 / Fold change vs veh, WDSUB1 / Fold change vs veh, HSP90B1 /// MIR3652 / RFU, ADSS / Fold change vs veh, ADSS / RFU, GK / Fold change vs veh, GK / RFU, ZNF148 / Fold change vs veh, ZNF148 / RFU, TAF9 / Fold change vs veh, TAF9 / RFU, SLC1A5 / Fold change vs veh, SLC1A5 / RFU, SLMO2 / Fold change vs veh, SLMO2 / RFU, ABCC4 / Fold change vs veh, ABCC4 / RFU, LOC101060439 /// RAP1B / Fold change vs veh, LOC101060439 /// RAP1B / RFU, RFX7 / Fold change vs veh, RFX7 / RFU, GTPBP10 / Fold change vs veh, GTPBP10 / RFU, CNEP1R1 / Fold change vs veh, CNEP1R1 / RFU, BIVM-ERCC5 /// ERCC5 / Fold change vs veh, BIVM-ERCC5 /// ERCC5 / RFU, ILF3 / Fold change vs veh, ILF3 / RFU 11762660_at / Fold change /veh 11762660_at / RFU VCAN (11757783_s_at) / Fold change /veh VCAN (11757783_s_at) / RFU DDX43 (11728927_at) / Fold change /veh DDX43 (11728927_at) / RFU KRT8 (11758188_x_at) / Fold change /veh KRT8 (11758188_x_at) / RFU NKD1 (11759106_at) / Fold change /veh NKD1 (11759106_at) / RFU SRD5A1 (11742802_a_at) / Fold change /veh SRD5A1 (11742802_a_at) / RFU TPSAB1 /// TPSB2 (11721975_s_at) / Fold change /veh TPSAB1 /// TPSB2 (11721975_s_at) / RFU GSTM3 (11746129_a_at) / Fold change /veh GSTM3 (11746129_a_at) / RFU IL23R (11737362_x_at) / Fold change /veh IL23R (11737362_x_at) / RFU TMEM51 (11727254_a_at) / Fold change /veh TMEM51 (11727254_a_at) / RFU PIWIL2 (11732686_x_at) / Fold change /veh PIWIL2 (11732686_x_at) / RFU ORM1 (11744905_x_at) / Fold change /veh ORM1 (11744905_x_at) / RFU CCDC152 (11743942_at) / Fold change /veh CCDC152 (11743942_at) / RFU ECM1 (11717891_a_at) / Fold change /veh ECM1 (11717891_a_at) / RFU IL23R (11748794_a_at) / Fold change /veh IL23R (11748794_a_at) / RFU TNFAIP8L3 (11732012_x_at) / Fold change /veh TNFAIP8L3 (11732012_x_at) / RFU MBOAT4 (11741988_at) / Fold change /veh MBOAT4 (11741988_at) / RFU 11764193_at / Fold change /veh 11764193_at / RFU TMEM53 (11763286_at) / Fold change /veh TMEM53 (11763286_at) / RFU MAGEB2 (11727129_at) / Fold change /veh MAGEB2 (11727129_at) / RFU TMEM200A (11744735_a_at) / Fold change /veh TMEM200A (11744735_a_at) / RFU CCDC152 (11751479_a_at) / Fold change /veh CCDC152 (11751479_a_at) / RFU FAM211A (11726209_a_at) / Fold change /veh FAM211A (11726209_a_at) / RFU RGS16 (11746705_a_at) / Fold change /veh RGS16 (11746705_a_at) / RFU VCAN (11755009_s_at) / Fold change /veh VCAN (11755009_s_at) / RFU RHOB (11743442_s_at) / Fold change /veh RHOB (11743442_s_at) / RFU RGS16 (11720943_a_at) / Fold change /veh RGS16 (11720943_a_at) / RFU RGS16 (11720944_at) / Fold change /veh RGS16 (11720944_at) / RFU, VPS4B / Fold change vs veh, VPS4B / RFU, CREB1 / Fold change vs veh, CREB1 / RFU, DNAJC13 / Fold change vs veh, DNAJC13 / RFU, GNAQ / Fold change vs veh, GNAQ / RFU, CDK5R1 / Fold change vs veh, CDK5R1 / RFU, ZRANB3 / Fold change vs veh, ZRANB3 / RFU, CUL4A / Fold change vs veh, CUL4A / RFU, CCNY / Fold change vs veh, CCNY / RFU, UFL1 / Fold change vs veh, UFL1 / RFU, COG3 / Fold change vs veh, COG3 / RFU, DIAPH2 / Fold change vs veh, DIAPH2 / RFU, SKA2 / Fold change vs veh, SKA2 / RFU, AFF3 / Fold change vs veh, AFF3 / RFU, LMF1 / Fold change vs veh, LMF1 / RFU, IPO11 / Fold change vs veh, IPO11 / RFU, DFFB / Fold change vs veh, DFFB / RFU, FOXP1 / Fold change vs veh, FOXP1 / RFU, CARD8 / Fold change vs veh, CARD8 / RFU, STRN3 / Fold change vs veh, STRN3 / RFU, ADK / Fold change vs veh, ADK / RFU, RASSF2 / Fold change vs veh, RASSF2 / RFU, WIPF1 / Fold change vs veh, WIPF1 / RFU, LARP1B / Fold change vs veh, LARP1B / RFU, RASA1 / Fold change vs veh, RASA1 / RFU, RB1 / Fold change vs veh, RB1 / RFU, PPFIA1 / Fold change vs veh, PPFIA1 / RFU, MAT2A / Fold change vs veh, MAT2A / RFU, CCT5 / Fold change vs veh, CCT5 / RFU, WDR92 / Fold change vs veh, WDR92 / RFU, CUX1 / Fold change vs veh, CUX1 / RFU, TTC7A / Fold change vs veh, TTC7A / RFU, TMEM135 / Fold change vs veh, TMEM135 / RFU, DEPTOR / Fold change vs veh, DEPTOR / RFU, CPM / Fold change vs veh, CPM / RFU, DNAJB6 / Fold change vs veh, DNAJB6 / RFU, CACNA2D3 / Fold change vs veh, CACNA2D3 / RFU, DTX4 / Fold change vs veh, DTX4 / RFU, TFCP2 / Fold change vs veh, TFCP2 / RFU, GMCL1 /// GMCL1P1 / Fold change vs veh, GMCL1 /// GMCL1P1 / RFU, AEBP2 / Fold change vs veh, AEBP2 / RFU, SNHG1 /// SNORD22 /// SNORD25 /// SNORD26 /// SNORD27 /// SNORD28 /// SNORD29 /// SNORD31 / Fold change vs veh, SNHG1 /// SNORD22 /// SNORD25 /// SNORD26 /// SNORD27 /// SNORD28 /// SNORD29 /// SNORD31 / Fold change (Aza/veh), C12orf56 (ProbeSet 11735607_a_at) / Fold change (ACY-1035/veh), C12orf56 (ProbeSet 11735607_a_at) / Fold change (Aza/veh), FGFR1OP (ProbeSet 11751329_s_at) / Fold change (ACY-1035/veh), FGFR1OP (ProbeSet 11751329_s_at) / Fold change (Aza/veh), VPS36 (ProbeSet 11739960_a_at) / Fold change (ACY-1035/veh), VPS36 (ProbeSet 11739960_a_at) / RFU SYPL1 (11715823_x_at) / Fold change /veh SYPL1 (11715823_x_at) / RFU IGFBP7 (11715501_s_at) / Fold change /veh IGFBP7 (11715501_s_at) / RFU REEP3 (11722064_at) / Fold change /veh REEP3 (11722064_at) / RFU IGLL1 (11728026_x_at) / Fold change /veh IGLL1 (11728026_x_at): dose or concentration left out as unconfirmed
Details: ProbeSet 11725100_s_at; LIST B

In the case of Nc1ccc(-c2cccs2)cc1NC(=O)c1ccc2c(c1)cc(C1CC1)n2CCN1CCOCC1 [ACY-1035], the “RFU, ESF1” value was 97.73 RFU.
